Test results as given in patent US20240002846A1, “COMPOSITIONS AND METHODS FOR THE DIAGNOSIS AND TREATMENT OF ITCH” (Duke University, priority 2020, published 2024).
Entries after “also recorded” stand apart in the source; their conditions may differ.

What was measured:
[1] = test system: extracellular release of miR-146a; test: Extracellular release of miRs from cultured mouse keratinocytes (RT-qPCR); type: cell-based; details: mKC; for effect of siRNA knockdown on LPC-elicited release of miR-146a: LPC 10 μM, 10 min, siRNA 72 h, vs Scramble+LPC; for decrease of extracellular-released miR-146a: siRNA knockdown, LPC stimulation
Protocol: Primary mouse keratinocytes were cultured following previous protocol (Chen et al. J. Biol. Chem. 2016, 291, 10252-10262). The epidermis from the back skin of newborn WT or keratinocyte-Trpv4 cKO mice was separated from the dermis by floating the skin on 0.25% trypsin (Gibco, Gaithersburg, MD) for 14-18 h at 4° C. Basal keratinocytes were separated from the cornified sheets by filtration through a […] cell strainer. Keratinocytes were plated on collagen I-coated dishes or glass coverslips and grown in EME media (Gibco, Gaithersburg, MD) containing 8% chelex (Bio-rad, Hercules, CA)-treated FBS with the final Ca^2+ adjusted to 0.05 mM, bovine pituitary extract (50 μg/mL), epidermal growth factor (5 ng/mL), and lx antibiotics/antimycotics (Gibco, Gaithersburg, MD) in a humidified incubator with 5% CO2 at 37° C. for 5-7 days until use. To knockdown Trpv4 in isolated keratinocytes from newborn keratinocyte-Trpv4 cKO mice, cells were treated with 4-OH tamoxifen at 500 nM for 72 h.
Measurement of released vesicles and extracellular miR-146a from cultured keratinocytes or sera Medium for the cultured keratinocytes was replaced with serum-free medium 2 h before LPC stimulation. […] Finally, cell-free supernatants were further purified using a Vesicular Isolation kit (Invitrogen, Waltham, MA) according to the manufacturer's instructions, with final product resuspended in ice-cold PBS. Total RNA extraction was then carried out using a Total RNA Isolation kit (Invitrogen, Waltham, MA). Enrichment for small RNAs was carried out by sequential increase in ethanol concentration and passing through glass-fiber filters. RNase free water was used to elute small RNAs in the final elution step. For human PBC sera or sera from ANIT-treated mice, RNA was isolated using Qiagen miRNeasy Plasma/Serum kit. cDNA synthesis from extracted RNAs was performed according to manufacturer's instructions (qSTAR miRNA kit, Origene). For qPCR, the stem-loop oligonucleotides specific for the following miRs are as follows: miR-146a-5p (GAGAACTGAATTCCATGGG, SEQ ID NO: 4), miR-let-7b (GAGGTAGTAGGTTGTGTGG, SEQ ID NO: 5), miR-125b-1 (CCCT GAGACCCTAACTTG, SEQ ID NO: 6), miR-203 (GTGGTTC TTGACAGTTCAAC, SEQ ID NO: 7), and miR-16-5p (AGCAGCAC GTAAATATTGGC, SEQ ID NO: 8). Primers were purchased from Integrated DNA Technologies company (Coralville, IA). qPCR reactions for each sample were run in triplicates, including no-template controls. MiR-16-5p was selected as a control due to the relative constancy of its expression in various cultured cell lines (Schwarzenbach et al. Clin. Chem. 2015, 61, 1333-1342). qPCR for this miR was performed in tandem with target miRs to determine the optimal normalization procedure. To investigate the effects of the specific TRPV4 inhibitors GSK205 or HC067047 and the specific MEK inhibitor U0126 on LPC-induced extracellular release of miR-146a, cells were incubated with the inhibitors for 15 min before stimulation. Control cells received the same volume of vehicle.
Vesicular release from cultured keratinocytes was quantified by detecting acetylcholinesterase (AChE) activity in the extracellular release fluid. (Gupta et al. Am. J. Physiol. Heart Circ. Physiol. 2007, 292, H3052-3056; Malik et al. Methods Mol. Biol. 2016, 1448, 237-248). CBQCA Protein Quantitation Kit (Molecular Probes, Eugene, OR) was used to assess the total protein amounts of each sample. Quantitation was carried out according to kit instructions (Fluorocet, Systems Biosciences, Palo Alto, CA). Briefly, vesicles were lysed to release esterase enzyme whose activity is measured using a florescence dye, excitation at 544 nm and emission at 590 nm. Fluostar Optima (BMG Labtech, Cary, NC) microplate reader was used to measure esterase activity. 500 ng protein equivalent of input was used per well. […]

[2] = test system: vesicular release from mKC; test: Vesicular release from cultured mouse keratinocytes (AChE activity); type: cell-based; details: vs Scramble+LPC
Protocol: Vesicular release from cultured keratinocytes was quantified by detecting acetylcholinesterase (AChE) activity in the extracellular release fluid. (Gupta et al. Am. J. Physiol. Heart Circ. Physiol. 2007, 292, H3052-3056; Malik et al. Methods Mol. Biol. 2016, 1448, 237-248). CBQCA Protein Quantitation Kit (Molecular Probes, Eugene, OR) was used to assess the total protein amounts of each sample. Quantitation was carried out according to kit instructions (Fluorocet, Systems Biosciences, Palo Alto, CA). Briefly, vesicles were lysed to release esterase enzyme whose activity is measured using a florescence dye, excitation at 544 nm and emission at 590 nm. Fluostar Optima (BMG Labtech, Cary, NC) microplate reader was used to measure esterase activity. 500 ng protein equivalent of input was used per well. To determine the contribution of Rab5a and Rab27a to LPC-induced miR-146a release, cells were pre-treated with the Rab5a (5′-GUAGAAUCAA GUUUCUAAUUCUGAA-3′ SEQ ID NO: 9, 5′-[…]-3′ SEQ ID NO: 10) or Rab27a (5′-AGCUAAAA CUGAGAGCUUCAAACAG-3′ SEQ ID NO: 11, 5′-[…]-3′ SEQ ID NO: 12) siRNA (IDT, Coralville, IA) for 72 h before stimulation. Control cells were treated with scramble siRNA.

mice = test: Effect of inhibitor pretreatment on LPA-, LPC- or miR-146a-induced scratching behavior; type: in vivo, mouse; details: for effect on LPC-induced itch, i.p. injection / effect on miR-146a-induced itch, i.p. injection: i.p.: SB366791 2 mg/kg, HC030031 30 mg/kg; for effect on LPC-induced itch, i.t. injection / effect on miR-146a-induced itch, i.t. injection: i.t. 30 μg
Protocol: Behavioral assessment. Mice were shaved at the dorsal neck 1 d before experiments. […] After injections, mice were immediately placed back to the chamber, and the scratching behavior was recorded by a Panasonic video camera for 30 min. Hind limb scratching behavior directed toward the injected area at the nape of neck was observed. One scratch is defined as a lifting of the hind limb toward the injection site and then a replacing of the limb back to the floor, regardless of how many scratching strokes take place between those two movements. Behavioral analysis was conducted by observers blinded to genotype.
Control animals received the same volume of vehicles.
Lumbar puncture was made with a 30G-needle and drugs at 5 μL of volume were delivered. Scratching behavior assay was started approximately 2 weeks after resiniferatoxin treatment.

DRG sensory neurons = test: Ca2+ imaging in cultured DRG sensory neurons; type: cell-based, mouse; details: inhibitor 10 μM
Protocol: Primary mouse sensory neurons were cultured following previous protocol (Chen et al. Pain 2014, 155, 2662-2672). DRGs from 2-3 weeks old male WT, Trpv1 KO, and Trpa1 KO mice were dissected and digested with 1 mg/mL collagenase (Worthington, CSL1) and 5 mg/mL dispase (Invitrogen, Waltham, MA) for 1 h, then triturated. The resulting cell suspension was filtered through a 70 μm cell strainer (BD Biosciences, Bedford, MA) to remove debris. Neurons were cultured in DH10 medium (1:1 DMEM:Hams-F12, Invitrogen, Waltham, MA) with 10% FBS (Sigma, St. Louis, MO), 100 U/mL penicillin and 100 μg/mL streptomycin (Gibco, Gaithersburg, MD) and 50 ng/mL nerve growth factor (NGF; USBiological) on coverslips coated with poly-D-lysine and laminin (Invitrogen, Waltham, MA), and incubated with 5% CO2 at 37° C. Ca^2+ imaging was performed next day after culture.
In vitro and ex vivo Ca^2+ imaging. Routine procedures were followed for Ca^2+ imaging in cultured DRG sensory neurons, epidermal keratinocytes, and HEK cells (Chen et al. J. Biol. Chem. 2016, 291, 10252-10262; Chen et al. Pain 2014, 155, 2662-2672). […] Ratios of emissions were acquired at 0.5 Hz. ΔR/R0 was determined as the fraction of the increase of a given ratio over baseline ratio divided by baseline ratio. […]

DRG neurons = test: Ex vivo Ca2+ imaging of GCaMP3-expressing DRG explants; type: cell-based, mouse
Protocol: A previously established method was followed for ex vivo Ca^2+ imaging of DRG explants (Kim et al. Neuron 2014, 81, 873-887). Intact DRGs (L4 or L5) were isolated from naïve male or female Pirt-GCaMP3 mice (2-3 months old) and equilibrated in artificial cerebrospinal fluid (ACSF) bubbled with 95% O2/5% CO2 at room temperature. After 15 min, explants were placed in a dish with 2 mL of pre-oxygenated ACSF and imaged using a Zeiss 780 upright confocal microscope (Carl Zeiss AG, Oberkochen, Germany) with 20× water immersion objective and Z-stack approach at the 488 nm wavelength. Explants were stimulated by miR-146a or miR-146a scramble. After 15 min recording, capsaicin was then applied to identify whether the miR-146a responding neurons were TRPV1 positive. […] Ca^2+ fluorescence intensity was determined using the ImageJ software (NIH, Bethesda, MD, USA). For each neuron, the pixel intensity (Ft) was assessed for each frame and the pixel intensity recorded from the first 20 frames was taken to determine the average baseline value (F0). Ca^2+ signal amplitudes are presented as ΔF/F0, which is the ratio of fluorescence difference (Ft−F0) to baseline (F0).

| Compound | effect of siRNA knockdown on LPC-elicited release of miR-146a [1] | decrease of extracellular-released miR-146a [1] | effect of siRNA on LPC-elicited vesicular release [2] | effect on LPC-induced itch, i.p. injection (mice) | effect on miR-146a-induced itch, i.p. injection (mice) | effect on LPC-induced itch, i.t. injection (mice) | effect on miR-146a-induced itch, i.t. injection (mice) | effect on miR-146a (300 nM) induced Ca2+ influx (DRG sensory neurons) | effect on percentage of total DRG neurons responding to miR-146a (300 nM) (DRG neurons; inhibitor 10 μM) | Ca2+ signal in sensory neurons following stimulation (DRG neurons; miR-146a 300 nM, capsaicin 1 μM) |
| --- | --- | --- | --- | --- | --- | --- | --- | --- | --- | --- |
| Rab5a siRNA: siRNA against Rab5a, SEQ ID NO: 9 and 10 (chain 1 GUAGAAUCAAGUUUCUAAUUCUGAA; chain 2 UUCAGAAUUAGAAACUUGAUUCUACCA; listed as RNA, chemistry not given here) | significant decrease | ~40% | completely eliminated; also recorded: significant decrease | – | – | – | – | – | – | – |
| CC(C)c1ccc(NC(=O)Cn2cnc3c2c(=O)n(C)c(=O)n3C)cc1 [HC030031] | – | – | – | not significantly altered | not significantly altered | not significantly altered | not significantly altered | not significantly altered | – | – |
| Rab27a siRNA: siRNA against Rab27a, SEQ ID NO: 11 and 12 (chain 1 AGCUAAAACUGAGAGCUUCAAACAG; chain 2 CUGUUUGAAGCUCUCAGUUUUAGCUUA; listed as RNA, chemistry not given here) | significant decrease | ~40% | completely eliminated; also recorded: significant decrease | – | – | – | – | – | – | – |
| COc1cccc(NC(=O)/C=C/c2ccc(Cl)cc2)c1 [SB366791] | – | – | – | significantly reduced; also recorded: significantly attenuated | significantly reduced; also recorded: significantly attenuated | significantly reduced; also recorded: significantly attenuated | significantly reduced; also recorded: significantly attenuated | significantly reduced | significantly reduced | – |
| COc1cc(CNC(=O)CCCC/C=C/C(C)C)ccc1O [capsaicin] | – | – | – | – | – | – | – | – | – | increased |
